Measured values as given in US20220378676A1, “COMPOSITION FOR ENHANCING SKIN ELASTICITY OR IMPROVING SKIN WRINKLES” (AMOREPACIFIC CORPORATION, priority 2021, published 2022).

Columns and labels:
[1] = system: TNF-α; experiment: TNF-α expression in particulate matter-treated fibroblasts (ELISA); format: cell-based; settings: human-derived fibroblasts, PM2.5 50 ug/mL, 100 μM, 24 hours
Method: (§1) Human-derived fibroblasts (LONZA Inc.) were transfected with siRNA for IFT88 (siIFT88) or scrambled siRNA (SC), respectively, and then were treated with 50 ug/mL of particulate matter (PM2.5) and 100 μM of 2-isopropylmalic acid for 24 hours. Thereafter, the expression levels of IL-6 and TNF-α, which were inflammatory cytokines, were measured in culture conditions by ELISA assay, and the results were shown in FIG. 9.

[2] = system: collagen; experiment: Collagen expression in particulate matter-treated fibroblasts (western blotting); format: cell-based; settings: human-derived fibroblasts, PM2.5, 100 μM, 24 hours
[3] = system: MMP-1; experiment: Inhibition of MMP-1 expression in an artificial skin model (immunocytochemistry, image analysis); format: cell-based; settings: full-thickness human 3D-skin model, PM2.5 100 ug/mL, 50 uM, 100 uM, 48 hours
Method: The effect of 2-IPMA on the skin was evaluated using a full-thickness human three-dimensional (3-D)-skin model. The full-thickness human 3D-skin model was fabricated in the following way. An artificial dermal layer was formed by loading a mixture of collagen (Nutragen, Advanced Biomatrix Inc.) and fibroblasts (NDFn, ThermoFisher Inc.) in a volume of 400 ul in Transwell® (Corning Inc.). Thereafter, a fibroblast culture medium (M106, Gibco Inc.) was put on the artificial dermal layer and cultured for 7 days to stabilize the artificial dermal layer. Next, keratinocytes (HEKn, ThermoFisher Inc.) were seeded on the artificial dermal layer, and cultured in keratinocyte culture medium (EpiLife, Gibco Inc.) for 1 day, followed by epidermal layer production medium (CnT-3DPR, CellnTEC) for 1 day, and then cultured in the same epidermal layer production medium for 10 days in a state of exposure to air to form an artificial epidermal layer, thereby constructing a full-thickness human 3D-skin model. 100 ug/mL of particulate matter (PM2.5) and 2-isopropylmalic acid (50 uM, 100 uM) were treated in the full-thickness human three-dimensional skin model constructed in this way for 48 hours. Thereafter, hematoxylin-eosin (H&E) staining and MMP-1 immunocytochemistry were performed, and the results were shown in FIG. 10.

[4] = system: MMP-1; experiment: MMP-1 expression in particulate matter-treated fibroblasts (western blotting); format: cell-based; settings: human-derived fibroblasts, PM2.5, 100 μM, 24 hours
[5] = system: RPE/Smo-GFP primary cilia model cells; experiment: Assessment of activation of primary cilia inhibited by particulate matter (PM2.5); format: cell-based, human; settings: PM2.5 50 ug/ml, 100 μM, 24 hours
Method: Particulate matter (PM2.5) was treated in RPE/Smo-GFP, which was the primary cilia model cells of Experimental Example 2. Specifically, particulate matter was directly collected in the air (37.34° N, 127.27° E, 167 m above sea level) using a Teflon filter (Teflon filter, Zefluor, Pall Life Science, Ann Arbor, Mich., USA). Then, this was treated at a concentration of 50 ug/ml in the cell culture medium. Thereafter, after treatment with 100 μM of 2-isopropylmalic acid for 24 hours, the fluorescence of Smo-GFP was visually observed using a fluorescence microscope, and then the production rate and length of primary cilia were measured and shown in FIGS. 4 and 5. The production rate of primary cilia was expressed as the ratio of the number of cells having primary cilia to the total number of cells as a percentage, and the length of primary cilia was a measure of the actual length of all cilia observed under a microscope. As a positive control, SAG (SMO agonist, Calbiochem Inc.), which was a primary cilia production promoting substance, was used.

[6] = system: IL-6; experiment: IL-6 expression in particulate matter-treated fibroblasts (ELISA); format: cell-based; settings: human-derived fibroblasts, PM2.5 50 ug/mL, 100 μM, 24 hours
Method: as §1

[7] = system: RPE/Smo-GFP primary cilia model cells; experiment: Assessment of primary ciliary activation (confocal microscopy); format: cell-based, human; settings: 20 μM, 100 μM, 24 hours, vs control group
Method: In order to confirm the primary cilia activation effect of 2-isopropylmalic acid, RPE/Smo-GFP, primary cilia model cells, was prepared. Specifically, human telomerase-immortalized retinal pigmented epithelial (RPE) cells (ATCC Inc.) were transformed with Smo-GFP plasmid (Addgene Inc.) to prepare RPE/Smo-GFP. After treating RPE/Smo-GFP with 2-isopropylmalic acid (Sigma Aldrich Inc.) at different concentrations (20 μM, 100 μM) for 24 hours, the primary cilia production rate and primary cilia length were measured by confocal microscopy (LSM510; Carl Zeiss Microimaging Inc., Thornwood, N.Y.) and the results were shown in FIGS. 2 and 3. The production rate of primary cilia was expressed as the ratio of the number of cells having primary cilia to the total number of cells as a percentage, and the length of primary cilia was a measure of the actual length of all cilia observed under a microscope. As a positive control, SAG (SMO agonist, Calbiochem Inc.), which was a primary cilia production promoting substance, was used.

[8] = system: c-Jun; experiment: c-Jun phosphorylation in particulate matter-treated fibroblasts (western blotting); format: cell-based; settings: human-derived fibroblasts, PM2.5, 100 μM, 24 hours; effect similar to SP600125
Method: Human-derived fibroblasts (LONZA Inc.) were treated with particulate matter (PM2.5). Then, after treatment with 100 μM of 2-isopropylmalic acid for 24 hours, cell lysate was made, protein was quantified, and the same amount of protein was separated by electrophoresis, and c-Jun, p-c-Jun (phosphorylated c-Jun) was performed by western blotting.

## CC(C)C(O)(CC(=O)O)C(=O)O (stereo not shown) [2-isopropylmalic acid]
[1]
  expression of TNF-α increased by particulate matter: reduced
[2]
  collagen expression: increased
[3]
  expression of MMP-1 increased by the particulate matter: decreased
[4]
  MMP-1 expression: decreased
[5]
  length of primary cilia: getting longer
  production of primary cilia suppressed by particulate matter: restored
[6]
  expression of IL-6 increased by particulate matter: reduced
[7]
  length of primary cilia: increased
  proportion of cells with primary cilia (production rate of primary cilia): statistically significantly higher than that of the control group
[8]
  phosphorylation of c-Jun by particulate matter: suppressed
